Measurements from US9549921B2, “Heterocyclic compounds and methods of use thereof for the treatment of hepatitis C” (priority 2014, dated 2017).
Read-outs that look alike come from different tables or passages of the source.

Tests used:
[1] = test system: HCV replicon genotype 1a; assay: HCV replicon assay, genotype 1a (cell ELISA for NS3/4A); format: cell-based, hepatitis C virus
How it was run: (§1)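 Readout is NS3/4A protein level from an antibody-based cell ELISA, serving as an indirect measure of replicon RNA; IC50 fitted with a four-parameter function relative to DMSO control. Replicon cells, kept under G418 beforehand, were plated with serial compound dilutions minus G418 for 96 hours.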

[2] = test system: HCV replicon genotype 1b; assay: HCV replicon assay, genotype 1b (cell ELISA for NS3/4A); format: cell-based, hepatitis C virus
How it was run: as §1

[3] = Hepatitis C virus, 96 h, read-out: 1a IC50 (nM), HCV genotype 1a replicon cells, 96 hours incubation, NS3/4A ELISA readout, % of DMSO control
[4] = Hepatitis C virus, 96 h, read-out: 1b IC50 (nM), HCV genotype 1b replicon cells, 96 hours incubation, NS3/4A ELISA readout, % of DMSO control

SMILES	IC50 [1, 3] [nM]	IC50 [2, 4] [nM]	other results
CNC(=O)c1c(-c2ccc(F)cc2)oc2cc(N(C)S(C)(=O)=O)c([C@@H]3CCCN(C(=O)c4nc5ncccc5[nH]4)C3)cc12 [Example 35, (S)-5-(1-(1H-imidazo[4,5-b]pyridine-2-carbonyl)piperidin-3-yl)-2-(4-fluorophenyl)-N-methyl-6-(N-methylmethylsulfonamido)benzofuran-3-carboxamide]	71.6	48.9	
CNC(=O)c1c(-c2ccc(F)cc2)oc2cc(N(C)S(C)(=O)=O)c([C@H]3CCCN(C(=O)c4nc5ncccc5[nH]4)C3)cc12 [Example 36, (R)-5-(1-(1H-imidazo[4,5-b]pyridine-2-carbonyl)piperidin-3-yl)-2-(4-fluorophenyl)-N-methyl-6-(N-methylmethylsulfonamido)benzofuran-3-carboxamide]	269	286	
CNC(=O)c1c(-c2ccc(F)cc2)oc2cc(N(C)S(C)(=O)=O)c([C@@H]3CCCN(C(=O)c4[nH]c5c(F)cccc5c4C)C3)cc12 [Example 37, (S)-5-(1-(7-fluoro-3-methyl-1H-indole-2-carbonyl)piperidin-3-yl)-2-(4-fluorophenyl)-N-methyl-6-(N-methylmethylsulfonamido)benzofuran-3-carboxamide]	162	92.8	
CNC(=O)c1c(-c2ccc(F)cc2)oc2cc(N(C)S(C)(=O)=O)c([C@H]3CCCN(C(=O)c4[nH]c5c(F)cccc5c4C)C3)cc12 [Example 38, (R)-5-(1-(7-fluoro-3-methyl-1H-indole-2-carbonyl)piperidin-3-yl)-2-(4-fluorophenyl)-N-methyl-6-(N-methylmethylsulfonamido)benzofuran-3-carboxamide]	277	116	
CNC(=O)c1c(-c2ccc(F)cc2)oc2cc(N(C)S(C)(=O)=O)c([C@@H]3CCCN(C(=O)c4cc5cccc(C(F)(F)F)c5[nH]4)C3)cc12 [Example 39, (S)-2-(4-fluorophenyl)-N-methyl-6-(N-methylmethylsulfonamido)-5-(1-(7-(trifluoromethyl)-1H-indole-2-carbonyl)piperidin-3-yl)benzofuran-3-carboxamide]	268	36.4	
CNC(=O)c1c(-c2ccc(F)cc2)oc2cc(N(C)S(C)(=O)=O)c([C@H]3CCCN(C(=O)c4cc5cccc(C(F)(F)F)c5[nH]4)C3)cc12 [Example 40, (R)-2-(4-fluorophenyl)-N-methyl-6-(N-methylmethylsulfonamido)-5-(1-(7-(trifluoromethyl)-1H-indole-2-carbonyl)piperidin-3-yl)benzofuran-3-carboxamide]	142	27.6	
CNC(=O)c1c(-c2ccc(F)cc2)oc2cc(N(C)S(C)(=O)=O)c(C3CCCN(c4nc5cc(F)ccc5o4)C3)cc12 (centres unmarked) [Example 51]			IC50 ([1]; HCV genotype 1a replicon cells, 96 hours incubation, NS3/4A ELISA readout, % of DMSO control, read-out: 1a IC50): 4.99 nM; IC50 ([2]; HCV genotype 1b replicon cells, 96 hours incubation, NS3/4A ELISA readout, % of DMSO control, read-out: 1b IC50): 7.12 nM
CNC(=O)c1c(-c2ccc(F)cc2)oc2cc(N(C)S(C)(=O)=O)c([C@@H]3CCCN(C(=O)C4CC4c4ccccn4)C3)cc12 (some centres unmarked) [Example 60, 2-(4-fluorophenyl)-N-methyl-6-[methyl(methylsulfonyl)amino]-5-{1-[(2-pyridin-2-ylcyclopropyl)carbonyl]piperidin-3-yl}-1-benzofuran-3-carboxamide]			IC50 ([1]; read-out: 1a IC50, HCV genotype 1a replicon cells, 96 hours incubation, NS3/4A ELISA readout, % of DMSO control): 116 nM; IC50 ([2]; read-out: 1b IC50, HCV genotype 1b replicon cells, 96 hours incubation, NS3/4A ELISA readout, % of DMSO control): 40.3 nM
CNC(=O)c1c(-c2ccc(F)cc2)oc2cc(N(C)S(C)(=O)=O)c([C@@H]3CCCN(C(=O)c4oc5ccc(F)cc5c4C)C3)cc12 [Example 62, 5-{1-[(5-fluoro-3-methyl-1-benzofuran-2-yl)carbonyl]piperidin-3-yl}-2-(4-fluorophenyl)-N-methyl-6-[methyl(methylsulfonyl)amino]-1-benzofuran-3-carboxamide]	192	41.2	
CNC(=O)c1c(-c2ccc(F)cc2)oc2cc(N(C)S(C)(=O)=O)c([C@@H]3CCCN(C(=O)C=C(C)C)C3)cc12 [Example 63, 2-(4-fluorophenyl)-N-methyl-5-[1-(3-methylbut-2-enoyl)piperidin-3-yl]-6-[methyl(methylsulfonyl)amino]-1-benzofuran-3-carboxamide]	156	68.1	
CNC(=O)c1c(-c2ccc(F)cc2)oc2cc(N(C)S(C)(=O)=O)c([C@@H]3CCCN(C(=O)c4cc5c(OC)cccc5[nH]4)C3)cc12 [Example 64, 2-(4-fluorophenyl)-5-{1-[(4-methoxy-1H-indol-2-yl)carbonyl]piperidin-3-yl}-N-methyl-6-[methyl(methylsulfonyl)amino]-1-benzofuran-3-carboxamide]	135	40.7	
CNC(=O)c1c(-c2ccc(F)cc2)oc2cc(N(C)S(C)(=O)=O)c([C@@H]3CCCN(C(=O)c4cc5ncccc5[nH]4)C3)cc12 [Example 65, 2-(4-fluorophenyl)-N-methyl-6-[methyl(methylsulfonyl)amino]-5-[1-(1H-pyrrolo[3,2-b]pyridin-2-ylcarbonyl)piperidin-3-yl]-1-benzofuran-3-carboxamide]	140	46.3	
CNC(=O)c1c(-c2ccc(F)cc2)oc2cc(N(C)S(C)(=O)=O)c([C@@H]3CCCN(C(=O)c4cc5ccccc5n4C)C3)cc12 [Example 67, 2-(4-fluorophenyl)-N-methyl-5-{1-[(1-methyl-1H-indol-2-yl)carbonyl]piperidin-3-yl}-6-[methyl(methylsulfonyl)amino]-1-benzofuran-3-carboxamide]	156	87.4	
CNC(=O)c1c(-c2ccc(F)cc2)oc2cc(N(C)S(C)(=O)=O)c([C@@H]3CCCN(C(=O)CC4CCCCC4)C3)cc12 [Example 68, 5-[1-(cyclohexylacetyl)piperidin-3-yl]-2-(4-fluorophenyl)-N-methyl-6-[methyl(methylsulfonyl)amino]-1-benzofuran-3-carboxamide]	98	89	
CNC(=O)c1c(-c2ccc(F)cc2)oc2cc(N(C)S(C)(=O)=O)c([C@@H]3CCCN(C(=O)c4nc5ccccc5s4)C3)cc12 [Example 69, 5-[1-(1,3-benzothiazol-2-ylcarbonyl)piperidin-3-yl]-2-(4-fluorophenyl)-N-methyl-6-[methyl(methylsulfonyl)amino]-1-benzofuran-3-carboxamide]	74.4	22.8	
CNC(=O)c1c(-c2ccc(F)cc2)oc2cc(N(C)S(C)(=O)=O)c([C@@H]3CCCN(C(=O)c4c[nH]cc4-c4ccc(F)cc4)C3)cc12 [Example 71, 2-(4-fluorophenyl)-5-(1-{[4-(4-fluorophenyl)-1H-pyrrol-3-yl]carbonyl}piperidin-3-yl)-N-methyl-6-[methyl(methylsulfonyl)amino]-1-benzofuran-3-carboxamide]	168	95.4	
CNC(=O)c1c(-c2ccc(F)cc2)oc2cc(N(C)S(C)(=O)=O)c([C@@H]3CCCN(C(=O)c4coc(-c5ccc(F)cc5)n4)C3)cc12 [Example 72, 2-(4-fluorophenyl)-5-(1-{[2-(4-fluorophenyl)-1,3-oxazol-4-yl]carbonyl}piperidin-3-yl)-N-methyl-6-[methyl(methylsulfonyl)amino]-1-benzofuran-3-carboxamide]	125	23.6	
CNC(=O)c1c(-c2ccc(F)cc2)oc2cc(N(C)S(C)(=O)=O)c([C@@H]3CCCN(C(=O)c4cc(-c5ccc(F)cc5)n[nH]4)C3)cc12 [Example 73, 2-(4-fluorophenyl)-5-(1-{[3-(4-fluorophenyl)-1H-pyrazol-5-yl]carbonyl}piperidin-3-yl)-N-methyl-6-[methyl(methylsulfonyl)amino]-1-benzofuran-3-carboxamide]	50.5	23.4	
CNC(=O)c1c(-c2ccc(F)cc2)oc2cc(N(C)S(C)(=O)=O)c([C@@H]3CCCN(C(=O)c4cc5sccc5n4C)C3)cc12 [Example 74, 2-(4-fluorophenyl)-N-methyl-6-[methyl(methylsulfonyl)amino]-5-{1-[(4-methyl-4H-thieno[3,2-b]pyrrol-5-yl)carbonyl]piperidin-3-yl}-1-benzofuran-3-carboxamide]	54.8	43.4	
CNC(=O)c1c(-c2ccc(F)cc2)oc2cc(N(C)S(C)(=O)=O)c([C@@H]3CCCN(C(=O)c4nc5ccc(F)cc5s4)C3)cc12 [Example 75, 5-{1-[(6-fluoro-1,3-benzothiazol-2-yl)carbonyl]piperidin-3-yl}-2-(4-fluorophenyl)-N-methyl-6-[methyl(methylsulfonyl)amino]-1-benzofuran-3-carboxamide]	72.3	12	
CNC(=O)c1c(-c2ccc(F)cc2)oc2cc(N(C)S(C)(=O)=O)c([C@@H]3CCCN(C(=O)c4nc5ccc(F)cc5[nH]4)C3)cc12 [Example 76, 5-{1-[(6-fluoro-1H-benzimidazol-2-yl)carbonyl]piperidin-3-yl}-2-(4-fluorophenyl)-N-methyl-6-[methyl(methylsulfonyl)amino]-1-benzofuran-3-carboxamide]	49.4	9.96	
CNC(=O)c1c(-c2ccc(F)cc2)oc2cc(N(C)S(C)(=O)=O)c([C@@H]3CCCN(C(=O)c4nc5ccccc5o4)C3)cc12 [Example 77, 5-[1-(1,3-benzoxazol-2-ylcarbonyl)piperidin-3-yl]-2-(4-fluorophenyl)-N-methyl-6-[methyl(methylsulfonyl)amino]-1-benzofuran-3-carboxamide]	64.3	19.2	
